Like-named read-outs stand apart in the source and are kept apart here.
Columns and labels:
HIV-1 NL4-3 isolate = assay type: cell-based; conditions: read-out: IC50 (50% inhibition of virus replication)
Sindbis virus = conditions: cited from earlier work
HIV-1 Ba-L isolate = assay type: cell-based; conditions: read-out: IC50 (50% inhibition of virus replication)
A549 cells [1] = test system: A549 cells
Ebola virus = test system: Ebola virus; design: species or system mice; conditions: mouse, in vivo, ip, 8 mg/kg
A549 cells [2] = test system: A549 cells; remark: listed apart in the source
Zaire Ebola GFP virus [3] = assay type: cell-based
HIV-1 = assay type: cell-based
Zaire Ebola GFP virus [4] = assay type: cell-based; remark: listed apart in the source
[5] = mouse, in vivo
Zaire Ebola GFP virus [6] = conditions: read-out: IC50 for the fit

N.N.N.N.N.N.[Cl-].[Cl-].[Cl-].[Co+3] [Cohex, Hexaamminecobalt(III) chloride]
IC50 (HIV-1 NL4-3 isolate): 28.6 µM
cell viability and viral expression (Sindbis virus): effective in significantly enhancing cell viability and in depressing viral expression
concentration until which no toxic effect appears (HepG2 cells): about 0.1 mM
IC50 (HIV-1 Ba-L isolate): 33.8 µM
dead cells by PI staining (A549 cells [1]): almost no change
survival versus PBS treatment (Ebola virus): improved survival rates
viability (leveling off) (293T cells): 70-80%
concentration until which no toxic effect appears (A549 cells [2]): about 0.1 mM
CC50 (PBMCs): 833 µM
concentrations at which cytotoxicity was observed (PBMCs): above 100 μM
suppression of viral expression (GFP) (Zaire Ebola GFP virus [3]): ~100%
IC50 (HIV-1): 31.2 µM
suppression of viral expression (GFP) (Zaire Ebola GFP virus [4]): ~100%
viability (leveling off) (VeroE6 cells): 70-80%
tolerability [5]: no adverse reactions reported
IC50 (Zaire Ebola GFP virus [6]): 380 µM
